The target of the first assay is T1, OX1 (Homo sapiens, UniProt O43613).
T1 construct: expressed in transfected cells; host or cells: CHO (CHO-OX1, kept under selection antibiotic)
T1 sequence (O43613 1-425): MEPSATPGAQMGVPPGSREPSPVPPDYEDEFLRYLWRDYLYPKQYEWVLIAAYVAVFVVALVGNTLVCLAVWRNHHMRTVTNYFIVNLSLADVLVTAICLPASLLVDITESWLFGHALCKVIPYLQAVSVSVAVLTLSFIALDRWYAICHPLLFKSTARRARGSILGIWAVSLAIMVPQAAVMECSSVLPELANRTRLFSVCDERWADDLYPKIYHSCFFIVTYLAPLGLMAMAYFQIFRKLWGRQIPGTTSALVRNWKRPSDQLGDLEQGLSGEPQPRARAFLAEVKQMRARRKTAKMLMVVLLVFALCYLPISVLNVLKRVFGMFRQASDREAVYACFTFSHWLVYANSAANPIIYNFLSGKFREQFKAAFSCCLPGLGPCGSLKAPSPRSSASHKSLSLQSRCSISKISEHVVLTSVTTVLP
Kind of assay: Orexin receptor cell-based functional assay, [Ca2+]i by FLIPR, CHO-OX1 cells. To be noted: CHO-OX1 cells, [Ca2+]i by FLIPR, antagonist dose-range 0.1 nM-10 μM, EC90 of OXA; read-out: OX1. How it is done: Measurement of [Ca^2+]i using a FLIPR: CHO—OX1 or CHO—OX2 cells are seeded into black-walled clear-base 384-well plates (Costar) at a density of 20,000 cells per well in F12-K medium supplemented with 10% FBS and selection antibiotic (500 ug/ml G418 or 15 ug/ml Blasticidin) and cultured overnight. The cells are incubated with equal volume of calcium4 loading buffer (Molecular Devices, Inc.) containing 2.5 mM probenecid at 37° C. for 30 min, followed by putative OX1 or OX2 receptor antagonists (dose-range 0.1 nM-10 μM) for another 30 min.
The cells are incubated with equal volume of calcium6 loading buffer (Molecular Devices, Inc.) containing 2.5 mM probenecid at 37° C. for 2 h, followed by test compounds (dose-range 0.1 nM-10 μM) for another 30 min.
Consider `Cc1c(F)ccc(-n2nccn2)c1C(=O)N1CCC[C@@H](C)[C@H]1CNc1ccc(C(F)(F)F)cn1` [Example A384, (3-Fluoro-2-methyl-6-(2H-1,2,3-triazol-2-yl)phenyl)((2S,3R)-3-methyl-2-(((5-(trifluoromethyl)pyridin-2-yl)amino)methyl)piperidin-1-yl)methanone], for which the IC50 amounted to 0.019 µM.
Turning to `Cc1ccc(-c2cnn(C)c2)c(C(=O)N2CCC[C@@H](C)[C@H]2CNc2ccc(F)cn2)c1` [Example A44, ((2S,3R)-2-(((5-Fluoropyridin-2-yl)-amino)methyl)-3-methylpiperidin-1-yl)(5-methyl-2-(1-methyl-1H-pyrazol-4-yl)phenyl)methanone], the IC50 is 0.011 µM.
As to `Cc1nc(C(=O)N2CCC[C@H](C)[C@H]2CNc2ccc(C(F)(F)F)cn2)c(-c2ccc(F)cc2)s1` (racemic) [Example A65, rac-trans-(5-(4-Fluorophenyl)-2-methylthiazol-4-yl)(3-methyl-2-(((5-(trifluoromethyl)pyridin-2-yl)amino)methyl)piperidin-1-yl)methanone], the IC50 stood at 0.007 µM.
Still for that read-out and setting: under `Cc1ccc(NC[C@@H]2[C@H](C)CCCN2C(=O)c2cc(C)ccc2-c2cnn(C)c2)nc1` [Example A49, ((2S,3R)-3-Methyl-2-(((5-methylpyridin-2-yl)amino)methyl)piperidin-1-yl)(5-methyl-2-(1-methyl-1H-pyrazol-4-yl)phenyl)methanone] stands 0.5 µM; under `C[C@@H]1CCCN(C(=O)c2ccc(F)cc2-n2nccn2)[C@@H]1CNc1ncc(C(F)(F)F)cn1` [Example A251, (4-Fluoro-2-(2H-1,2,3-triazol-2-yl)phenyl)((2S,3R)-3-methyl-2-(((5-(trifluoromethyl)pyrimidin-2-yl)amino)methyl)piperidin-1-yl)methanone], 0.058 µM.
Take `Cc1ccc(-c2cccnc2)c(C(=O)N2CCC[C@@H](C)[C@H]2CNc2ncc(Cl)cn2)n1` [Example A222, ((2S,3R)-2-(((5-Chloropyrimidin-2-yl)amino)methyl)-3-methylpiperidin-1-yl)(6-methyl-[3,3′-bipyridin]-2-yl)methanone]: the IC50 was 0.082 µM.
The same measure, in the same setting: as for `Cc1ccc(C(=O)N2CCC[C@@H](C)[C@H]2CNc2ncc(C(F)(F)F)cn2)c(-n2nccn2)c1` [Example A272, ((2S,3R)-3-Methyl-2-(((5-(trifluoromethyl)pyrimidin-2-yl)amino)methyl)piperidin-1-yl)(4-methyl-2-(2H-1,2,3-triazol-2-yl)phenyl)methanone], the figure is 0.014 µM.

Still in this assay, the particulars now being: Table 2; CHO-OX1 cells, EC90 of OXA; read-out: IC50 Bioactivity OX1.
As for `C[C@@H]1CCCN(C(=O)c2ccccc2OC(F)(F)F)[C@@H]1CNc1ncc(Cl)cn1` (racemic) [Example 122, rac-cis-(2-(((5-Chloropyrimidin-2-yl)amino)methyl)-3-methylpiperidin-1-yl)(2-(trifluoromethoxy)phenyl)methanone], the IC50 was 3.5 µM.
Take `CCc1cnc(NC[C@@H]2[C@H](C)CCCN2C(=O)c2nc(C)sc2-c2ccc(F)cc2)nc1` (racemic) [Example 16, rac-cis-(2-(((5-Ethylpyrimidin-2-yl)amino)methyl)-3-methylpiperidin-1-yl)(5-(4-fluorophenyl)-2-methylthiazol-4-yl)methanone]: the IC50 came out at 0.008 µM.
The same measure, in the same setting: under `O=C(NC[C@@H]1C[C@@H](F)CN1C(=O)c1ccccc1-c1ccccc1)c1cccc2cccnc12` [Example 128, N-(((2S,4R)-1-(Biphenylcarbonyl)-4-fluoropyrrolidin-2-yl)methyl)quinoline-8-carboxamide] stands 0.035 µM.
Consider `Cc1nc(C(=O)N2CC(O)CCC2CNC(=O)c2cccc3cccnc23)c(-c2cccc(F)c2)s1` (racemic) [Example 51, N-((1-(5-(3-Fluorophenyl)-2-methylthiazole-4-carbonyl)-5-hydroxypiperidin-2-yl)methyl)quinoline-8-carboxamide], for which the IC50 came out at 0.01 µM.
As to `COc1c(F)cccc1C(=O)NCC1CCCC(C)N1C(=O)c1nc(C)sc1-c1ccc(F)cc1` (racemic) [Example 60, rac-3-Fluoro-N-((1-(5-(4-fluorophenyl)-2-methylthiazole-4-carbonyl)-6-methylpiperidin-2-yl)methyl)-2-methoxybenzamide], the IC50 stood at 0.001 µM.
In the case of `CNC1CCC(CNC(=O)c2cccc3cccnc23)N(C(=O)c2ccccc2-c2ccccc2)C1` (racemic) [Example 49, N-((1-(Biphenylcarbonyl)-5-(methylamino)piperidin-2-yl)methyl)quinoline-8-carboxamide], the IC50 is 0.025 µM.
With `O=C(NCC1CCC(F)CN1C(=O)c1ccccc1-c1ccccc1)c1cccc2cccnc12` (single isomer, unassigned) [Example 37, N-((1-(Biphenylcarbonyl)-5-fluoropiperidin-2-yl)methyl)quinoline-8-carboxamide], the IC50 was found to be 0.001 µM.
On the same count and under the same terms, as for `Cc1ccc(-c2ccnn2C)c(C(=O)N2CCC[C@@H](C)[C@H]2CNc2ccc(C(F)(F)F)cn2)c1` (racemic) [Example 108, rac-cis-(3-Methyl-2-(((5-(trifluoromethyl)pyridin-2-yl)amino)methyl)piperidin-1-yl)(5-methyl-2-(1-methyl-1H-pyrazol-5-yl)phenyl)methanone], the figure is 0.013 µM; as for `Cc1nc(C(=O)N2CCC[C@@H](C)[C@H]2COc2nc3ccccc3o2)c(-c2ccc(F)cc2)s1` (racemic) [Example 80, rac-cis-(2-((Benzo[d]oxazol-2-yloxy)methyl)-3-methylpiperidin-1-yl)(5-(4-fluorophenyl)-2-methylthiazol-4-yl)methanone], 0.14 µM; as for `Cc1nc(C(=O)N2CCC[C@@H](C)[C@H]2CNc2ccc(C(F)(F)F)cn2)c(-c2ccccc2)s1` (racemic) [Example 73, rac-cis-(3-Methyl-2-(((5-(trifluoromethyl)pyridin-2-yl)amino)methyl)piperidin-1-yl)(2-methyl-5-phenylthiazol-4-yl)methanone], < 0.01 µM.
With `Cc1nc(C(=O)N2CCC[C@H](C)[C@H]2CNc2ncc(Cl)cn2)c(-c2ccc(F)cc2)s1` (racemic) [Example 96, rac-trans-(2-(((5-Chloropyrimidin-2-yl)amino)methyl)-3-methylpiperidin-1-yl)(5-(4-fluorophenyl)-2-methylthiazol-4-yl)methanone], the IC50 was found to be 0.018 µM.
Still for that read-out and setting: as for `Cc1ccc(-n2ccnc2)c(C(=O)N2CCC[C@@H](C)[C@H]2CNc2ccc(C(F)(F)F)cn2)c1` (racemic) [Example 116, rac-cis-(2-(1H-Imidazol-1-yl)-5-methylphenyl)(3-methyl-2-(((5-(trifluoromethyl)pyridin-2-yl)amino)methyl)piperidin-1-yl)methanone], the figure is < 0.1 µM.
On the same count and under the same terms, under `Cc1nc(C(=O)N2CC(F)CCC2CNC(=O)c2cccc3cccnc23)c(-c2ccccc2)s1` (racemic) [Example 1, N-((5-Fluoro-1-(2-methyl-5-phenylthiazole-4-carbonyl)piperidin-2-yl)methyl)quinoline-8-carboxamide] stands 0.001 µM; under `Cc1nc(-c2ccccc2)c(C(=O)N2CC(F)CCC2CNC(=O)c2cccc3cccnc23)s1` (racemic) [Example 35, N-((5-Fluoro-1-(2-methyl-4-phenylthiazole-5-carbonyl)piperidin-2-yl)methyl)quinoline-8-carboxamide], 0.002 µM.
On the same count and under the same terms, under `Cc1nc(C(=O)N2CC(F)(F)CCC2CNC(=O)c2cccc3cccnc23)c(-c2ccccc2)s1` (racemic) [Example 56, rac-N-((5,5-Difluoro-1-(2-methyl-5-phenylthiazole-4-carbonyl)piperidin-2-yl)methyl)quinoline-8-carboxamide] stands < 0.1 µM; under `Cc1nc(-c2ccccc2)c(C(=O)N2C(C)CCCC2CCOc2ccccc2)s1` (racemic) [Example 30, rac-(2-Methyl-4-phenylthiazol-5-yl)(2-methyl-6-(2-phenoxyethyl)piperidin-1-yl)methanone], 0.22 µM.
For the compound `Cc1nc(C(=O)N2CCC[C@@H](C)[C@H]2CNc2cccc3cccnc23)c(-c2ccc(F)cc2)s1` (racemic) [Example 74, rac-cis-(3-Methyl-2-((quinolin-8-ylamino)methyl)piperidin-1-yl)(5-(4-fluorophenyl)-2-methylthiazol-4-yl)methanone], the IC50 is 0.058 µM.
As for `Cc1ccc(-c2cncnc2)c(C(=O)N2CCC[C@@H](C)[C@H]2CNc2ccc(C(F)(F)F)cn2)c1` (racemic) [Example 107, rac-cis-(3-Methyl-2-(((5-(trifluoromethyl)pyridin-2-yl)amino)methyl)piperidin-1-yl) (5-methyl-2-(pyrimidin-5-yl)phenyl)methanone], the IC50 stood at 0.078 µM.
Still for that read-out and setting: under `COc1ccnc(NC[C@@H]2[C@H](C)CCCN2C(=O)c2nc(C)sc2-c2ccc(F)cc2)n1` (racemic) [Example 17, rac-cis-(5-(4-Fluorophenyl)-2-methylthiazol-4-yl)(2-(((4-methoxypyrimidin-2-yl)amino)methyl)-3-methylpiperidin-1-yl)methanone] stands 0.052 µM.

Source of the values: US9440982B2 (Eolas Therapeutics, Inc., priority 2012, dated 2016).
